Data from patent US8759348B2, “Use of 4-(pyrrolidin-1-yl)quinoline compounds to kill clinically latent microorganisms” (Helperby Therapeutics Limited, priority 2007, dated 2014).

System: persister Mycobacterium tuberculosis
Format: cell-based
Settings: 10 μg/mL of test compound

## Cc1cc(N2CCC(Cc3ccccc3)C2)c2cc(Oc3ccccc3)ccc2n1.Cl (stereo not shown) [Example 8, 4-(3-Benzylpyrrolidin-1-yl)-2-methyl-6-phenoxyquinoline hydrochloride]
  log kill: 2.26
